Source: patent US9797016B2, “Methods and biomarkers for detection of bladder cancer” (OSLO UNIVERSITETSSYKEHUS HF, priority 2010, dated 2017)

Tested on: bladder cancer cell lines (5637, J82, SCaBER, TCCSUP)
Experiment: Quantitative gene expression analyses (real-time PCR) after epigenetic drug treatment
Format: cell-based, human
Settings: hypermethylated bladder cancer cell lines; 1 μM or 5 μM 5-aza-dC alone, 72 hours
Procedure: Cell lines representative of bladder (5637, J82, SCaBER, and TCCSUP), renal cell (786-0, ACHN, Caki-1, Caki-2) and prostate (22Rv1, DU 145, LNCaP, PC-3) cancer were obtained from the American Type Culture Collection (Manassas, Va.). All cell lines were cultured according to the manufacturer's specifications, with 10% fetal bovine serum (Gibco, Invitrogen, Carlsbad, Calif.) and antibiotics (100 units/mL penicillin G, and 100 μg/mL streptomycin, Gibco), in a humidified atmosphere of 5% CO2 at 37° C. […] RNA from four bladder cancer cell lines untreated, treated either with 1 μM or 5 μM of 5-aza-2′-deoxycytidine for 72 hours, and treated with the combination of 1 μM of 5-aza-dC (72 h) and 0.5 μM of trichostatin (added the last 12 h) was analyzed. […] GDF15 (Hs00171132_m1), HSPA2 (Hs00356607_g1), TMEFF2 (Hs01086901_m1), VIM (Hs00185584_m1), and endogenous controls assays GUSB (Hs99999908_m1) and HPRTJ (Hs99999909_m1), were amplified separately in 96-well plates following the recommended protocol (Applied Biosystems), and the real time quantitative gene expression was measured by the 7500 Real-Time PCR System (Applied Biosystems). All samples were analyzed in triplicate, and the mean value was used for data analysis. […]

Nc1ncn([C@H]2C[C@H](O)[C@@H](CO)O2)c(=O)n1 [5-aza-dC, 5-aza-2′-deoxycytidine]
transcript expression of GDF15, HSPA2, TMEFF2 and VIM after promoter demethylation: restored or increased
